# Assay results as given in patent publication US9856218B2, “Inhibitors of PRMT5 and methods of their use” (Ohio State Innovation Foundation, priority 2013, dated 2018).
# Tests used:
# multiple cell lines = experiment: Proliferation of multiple cell lines (FIG. 59); format: cell-based; conditions: FIG. 59A-E
# Procedure: Proliferation of multiple cell lines was evaluated for CMPD 5, CMPD 7, HLCL61, HLCL-65, and HLCL-66 (FIG. 59A-E).
# [1] = tested on: primary AML patient samples; experiment: Differentiation marker CD11b, flow cytometry; format: cell-based, human; conditions: 25 μM, compared with vehicle-treated cells
# Procedure: (§1) Cells (1×10^6) were washed and passed through a […] filter (BD), then re-suspended in 200 μL binding buffer with or without 5 μL AnnexinV (for apoptosis detection) or CD11b (for maturation detection) antibody (BD Biosciences, Billerica, Mass.). After 15 min. of incubation cells were washed with PBS, re-suspended in 500 μL flow buffer and analyzed on a FACSCalibur cytometer (BD Biosciences). For apoptosis detection, 5 μL propidium iodide (PI) (BD Biosciences) was added to cell before running flow cytometry. Sorting for GFP-positive cells was carried out on BD FACS Aria instrument after filtering and washing cells 2× with ice cold PBS supplemented with 2% calf bovine serum and re-suspending in FACS buffer.
# (§2) PRMT5 inhibition by C12 was also effective in promoting apoptosis and differentiation.
# The increase in CD11b expression in AML cells lines followed a dose-dependent manner.
# [2] = tested on: FLT3 response element in THP-1 cells; experiment: FLT3-promoter-Luciferase reporter assay; format: cell-based
# Procedure: Promoter region of FLT3 (SEQ ID NO. 1: […] […] […] […] […] […] […] […] […] […] […] […] […] […] CGCGAGGCGCGCCGCT.[…] […] […] […] […] […] […]) was cloned into pGL4.11 [luc2P] vector. THP-1 cells were transfected with empty vector or FLT3-promoter luciferase plasmid and Renilla in presence or absence of C12. Firefly luciferase and Renilla luciferase activity was measured using Dual-Luciferase Reporter Assay System (Promega).
# A key regulator of FLT3 expression in AML has been previously identified: a transactivation complex composed of transcription factors SP1 and NFκB(p65) (Liu, S., et al. (2010) Cancer Cell 17, 333-347; Blum, W., et al. (2012) Blood 119, 6025-6031). […] The role of PRMT5 in recruitment and localization of these factors to regulatory region of FLT3 was then tested using a chromatin immunoprecipitation (ChIP) assay and antibodies specific for NFκB(p65), SP1 and primers designed to amplify predicted binding sites at the promoter region of FLT3 (Liu, S., et al. (2008) Blood 4, 2364-2373; Liu, S., et al. (2010) Cancer Cell 17, 333-347). […] PRMT5 was then overexpressed in MV4-11 and THP-1 cells, and the ChIP experiment repeated. […] Additionally, supporting a functional role for PRMT5 in modulating FLT3 activity, inhibition of PRMT5 following exposure to C12 disrupted the FLT3 response element (i.e. FLT3-promoter-Luciferase reporter) activities in THP-1 cells (FIG. 43B). […]
# [3] = target: T1, recombinant human PRMT5/MEP50 enzyme (Homo sapiens, UniProt O14744); experiment: Epigenase PRMT methyltransferase (type II-specific) activity/inhibition assay kit; format: biochemical; conditions: 25 ng recombinant human PRMT5/MEP50 per reaction; read-out: Inhibition of PRMT5 mediated H4R3 methylation (IC50)
# T1 construct: purchased BPS Bioscience
# Procedure: The inhibition of PRMT5 mediated H4R3 methylation result was obtained with Epigenase™ PRMT methyltransferase (type II-specific) activity/inhibition assay kit. 25 ng recombinant human PRMT5/MEP50 enzyme (purchased from BPS Bioscience) was used in each reaction.
# [4] = target: T2, affinity-purified hSWI/SNF associated PRMT5 (Homo sapiens, UniProt O14744); experiment: Histone methyltransferase assay, [3H]SAM; format: biochemical; conditions: for inhibition of PRMT5 methylase activity, potency among inhibitors: FIG. 33A
# T2 construct: made in house
# Procedure: Histone methylation was performed in the presence of DMSO, and 1-40 μM inhibitor compounds. […] After 1.5 h incubation at 30° C., reaction mixtures were spotted on Whatman P-81 filter paper, washed five times with 10 mL of […] sodium carbonate buffer (pH 9.0) to remove unincorporated [3H]SAM, and methylated peptides were detected by scintillation counting.
# Type II PRMT enzymes repress gene transcription and symmetrically dimethylate H3R8 and H4R3, while type I PRMT enzymes activate gene transcription and asymmetrically dimethylate H4R3. Purified PRMT5, PRMT1, PRMT4 and PRMT7 were obtained to perform the assay.
# Histone methylation was performed in the presence of DMSO, and 1-40 μM HLCL-32, HLCL-10, HLCL-61 and HLCL-64. […] After a 1.5 h incubation at 30° C. reaction mixtures were spotted on Whatman P-81 filter paper, washed five times with 10 mL of […] sodium carbonate buffer (pH 9.0) to remove unincorporated [^3H]SAM, and methylated peptides were detected by scintillation counting.
# [5] = In vivo pharmacokinetics, plasma concentration; parameters: species or system Mouse; conditions: mouse, in vivo
# Excerpt: Pharmacokinetic data of compounds HLCL-7, HLCL-61, and HLCL-66 taken from an in vivo study is illustrated in Table 10. […]
# [6] = tested on: AML cell lines (MV4-11 (FLT3-ITD) and Kasumi-1 (KITmut)); experiment: Apoptosis, AnnexinV and PI flow cytometry; format: cell-based; conditions: 25 and 50 μM for 48 hours
# Procedure: as §1, §2
# Referring to FIG. 36, a flow cytometry analysis of AML cell lines treated with PRMT5 inhibitor and stained for cell surface markers AnnexinV and PI indicates a dose-dependent increase in the percentage of apoptotic and dead cells when compared to DMSO-treated cells. Induction of programmed cell death was stronger in the FLT3-ITD AML cell line MV4-11.
# T2 sequence (O14744 whole entry): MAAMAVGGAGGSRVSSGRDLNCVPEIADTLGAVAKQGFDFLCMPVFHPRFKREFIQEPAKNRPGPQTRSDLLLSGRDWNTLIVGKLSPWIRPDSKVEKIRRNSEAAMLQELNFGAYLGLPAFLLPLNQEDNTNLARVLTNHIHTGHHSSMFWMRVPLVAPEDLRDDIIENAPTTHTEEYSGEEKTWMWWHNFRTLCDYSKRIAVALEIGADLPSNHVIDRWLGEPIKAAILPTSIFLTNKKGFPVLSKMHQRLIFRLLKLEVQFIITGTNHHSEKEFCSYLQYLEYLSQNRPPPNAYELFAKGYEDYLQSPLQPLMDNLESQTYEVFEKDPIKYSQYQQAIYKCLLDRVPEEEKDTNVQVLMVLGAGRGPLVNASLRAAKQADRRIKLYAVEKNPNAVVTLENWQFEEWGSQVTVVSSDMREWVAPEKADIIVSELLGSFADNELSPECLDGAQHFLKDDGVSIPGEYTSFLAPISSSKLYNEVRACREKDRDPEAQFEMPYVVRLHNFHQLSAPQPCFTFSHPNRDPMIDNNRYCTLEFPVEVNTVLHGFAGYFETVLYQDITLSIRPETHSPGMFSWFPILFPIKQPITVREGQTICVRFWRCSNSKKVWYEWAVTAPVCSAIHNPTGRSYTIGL
# T2 sequence (Q9BQA1 whole entry partner): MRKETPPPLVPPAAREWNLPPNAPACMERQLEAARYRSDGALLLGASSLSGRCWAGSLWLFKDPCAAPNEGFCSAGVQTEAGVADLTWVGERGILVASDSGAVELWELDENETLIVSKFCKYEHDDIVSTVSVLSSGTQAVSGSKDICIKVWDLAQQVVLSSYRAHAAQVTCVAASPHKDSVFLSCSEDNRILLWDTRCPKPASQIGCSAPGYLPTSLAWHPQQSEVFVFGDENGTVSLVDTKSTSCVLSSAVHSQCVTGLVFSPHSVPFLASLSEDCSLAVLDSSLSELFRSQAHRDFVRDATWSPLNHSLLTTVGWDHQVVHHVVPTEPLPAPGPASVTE
# T1 sequence (O14744 2-637 limits assumed): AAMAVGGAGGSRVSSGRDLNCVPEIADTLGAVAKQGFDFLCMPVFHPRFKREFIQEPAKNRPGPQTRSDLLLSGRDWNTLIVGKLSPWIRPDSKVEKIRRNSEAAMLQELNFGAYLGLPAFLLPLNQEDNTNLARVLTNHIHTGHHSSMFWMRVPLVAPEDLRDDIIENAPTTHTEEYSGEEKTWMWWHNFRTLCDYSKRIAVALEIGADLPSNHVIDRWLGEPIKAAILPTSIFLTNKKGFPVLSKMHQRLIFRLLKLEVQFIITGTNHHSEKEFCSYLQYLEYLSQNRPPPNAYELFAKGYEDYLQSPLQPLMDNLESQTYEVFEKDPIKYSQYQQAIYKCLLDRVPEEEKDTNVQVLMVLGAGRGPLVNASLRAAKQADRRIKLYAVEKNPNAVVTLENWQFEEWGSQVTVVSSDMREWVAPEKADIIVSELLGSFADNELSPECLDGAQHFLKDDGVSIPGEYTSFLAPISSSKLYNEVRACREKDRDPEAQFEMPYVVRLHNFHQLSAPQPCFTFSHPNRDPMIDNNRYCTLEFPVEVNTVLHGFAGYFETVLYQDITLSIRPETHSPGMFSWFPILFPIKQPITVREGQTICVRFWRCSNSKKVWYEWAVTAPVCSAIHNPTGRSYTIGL
# T1 sequence (Q9BQA1 2-342 partner limits assumed): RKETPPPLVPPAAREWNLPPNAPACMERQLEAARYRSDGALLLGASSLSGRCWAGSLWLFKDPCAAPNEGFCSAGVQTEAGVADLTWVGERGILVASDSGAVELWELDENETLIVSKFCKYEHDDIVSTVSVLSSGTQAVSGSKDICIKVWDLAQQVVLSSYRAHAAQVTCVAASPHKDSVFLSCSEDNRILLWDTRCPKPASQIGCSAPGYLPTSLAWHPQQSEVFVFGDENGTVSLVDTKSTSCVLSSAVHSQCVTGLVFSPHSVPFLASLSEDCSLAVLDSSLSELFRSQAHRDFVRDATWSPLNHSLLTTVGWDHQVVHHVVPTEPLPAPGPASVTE
smiles,measurement,setting,value
CCn1c2ccccc2c2cc(CNCc3ccccc3OC)ccc21 [HLCL-61],"potency, proliferation of multiple cell lines",multiple cell lines,low micromolar range
same,increase in expression of CD11b,[1],> 4 fold
same,FLT3 response element (FLT3-promoter-Luciferase reporter) activities,[2],disrupted
same,IC50,[3],12 µM
same,inhibition of PRMT5 enzyme,"[4]; 10 μM, FIG. 17B",the only enzyme that is affected is PRMT5
same,IC50,"[4]; FIG. 16, 1-40 μM compound, HeLa S3 core histones, read-out: PRMT5 methylation activity IC50",~5 µM
same,"inhibition of PRMT5 methylase activity, potency among inhibitors",[4]; listed as C12,most potent of these inhibitors
same,"inhibition of PRMT5 methylase activity, potency among inhibitors",[4]; listed as CMPD 12,most potent in inhibiting enzymatic activity of PRMT5
same,concentration at 0.08 h,"[5]; ip, 25 mg/kg",3150 nM
same,concentration at 0.17 h,"[5]; ip, 25 mg/kg",2280 nM
same,concentration at 0.33 h,"[5]; ip, 25 mg/kg",2040 nM
same,concentration at 0.5 h,"[5]; ip, 25 mg/kg",1830 nM
same,concentration at 1 h,"[5]; ip, 25 mg/kg",1390 nM
same,concentration at 2 h,"[5]; ip, 25 mg/kg",1500 nM
same,concentration at 4 h,"[5]; ip, 25 mg/kg",712 nM
same,concentration at 6 h,"[5]; ip, 25 mg/kg",696 nM
same,concentration at 8 h,"[5]; ip, 25 mg/kg",332 nM
same,concentration at 24 h,"[5]; ip, 25 mg/kg",1.4 nM
same,concentration at 0.08 h,"[5]; iv, 5 mg/kg",1220 nM
same,concentration at 0.17 h,"[5]; iv, 5 mg/kg",1610 nM
same,concentration at 0.33 h,"[5]; iv, 5 mg/kg",702 nM
same,concentration at 0.5 h,"[5]; iv, 5 mg/kg",994 nM
same,concentration at 1 h,"[5]; iv, 5 mg/kg",942 nM
same,concentration at 2 h,"[5]; iv, 5 mg/kg",525 nM
same,concentration at 4 h,"[5]; iv, 5 mg/kg",155 nM
same,concentration at 6 h,"[5]; iv, 5 mg/kg",94.4 nM
same,concentration at 8 h,"[5]; iv, 5 mg/kg",51.1 nM
same,concentration at 24 h,"[5]; iv, 5 mg/kg",6.76 nM
same,apoptosis,[6],dose-dependent increase in apoptosis
